# Data reported in patent US10647680B2, “Urea compound, preparation method therefor and medical use thereof” (Ancureall Pharmaceutical (Shanghai) Co., Ltd., priority 2016, dated 2020).
# Several values for one entry are separate records, joined by “and”; a condition that tells them apart may be missing. Identical values can stand only once.
# Experiments:
# Type in all cases: in vitro ADME
# CYP2C8 = target: T1, CYP2C8 (Homo sapiens, UniProt P10632); assay: P450 enzyme inhibition, CYP2C8; settings: human liver microsomes
# T1 construct: human liver microsomes (BD Gentest) (0.5 mg/mL); tissue BD Gentest; host or cells: human liver microsomes
# T1 sequence (P10632 1-490): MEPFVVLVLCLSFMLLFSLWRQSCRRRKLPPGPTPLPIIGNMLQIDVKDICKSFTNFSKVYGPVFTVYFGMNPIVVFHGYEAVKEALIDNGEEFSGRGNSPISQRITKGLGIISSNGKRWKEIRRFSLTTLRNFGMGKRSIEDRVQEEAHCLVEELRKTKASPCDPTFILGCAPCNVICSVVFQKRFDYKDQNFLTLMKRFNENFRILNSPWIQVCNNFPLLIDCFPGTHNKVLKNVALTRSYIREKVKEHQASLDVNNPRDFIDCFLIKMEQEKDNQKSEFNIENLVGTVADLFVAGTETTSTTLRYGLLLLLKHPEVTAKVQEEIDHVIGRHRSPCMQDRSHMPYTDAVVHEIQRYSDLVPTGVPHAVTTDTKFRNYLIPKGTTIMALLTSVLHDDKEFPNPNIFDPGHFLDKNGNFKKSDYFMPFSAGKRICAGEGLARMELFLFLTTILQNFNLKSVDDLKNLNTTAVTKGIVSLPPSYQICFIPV
# Method: (§1) Eight cytochrome p450 enzyme inhibition reactions of human liver microsomes were performed using compound 77 of the present invention as a representative example.
# (§2) The main reaction systems and processes: in 37° C. water bath, the test compounds (7 concentrations, 0, 0.25, 0.5, 5, 10, 25, and 50 uM; the final methanol concentration was 1% in the system), human liver microsomes (BD Gentest) (0.5 mg/mL) and reducing coenzyme II (Roche 10621706001) (1 mg/mL) and the corresponding cytochrome p450 enzyme probe substrate were co-incubated for 5 to 20 minutes. Among them, (1) the probe substrate for CYP1A2 was Phenacetin ([…]) (Sigma), and the selective inhibitor alpha-naphthoflavone (2 uM) (Sigma) was for parallel detection as positive control, and they were incubated for 20 minutes. (2) The probe substrate for CYP2b6 was Bupropion (40 uM) (Sigma) and the selective inhibitor Ticlopidine (10 uM) (Sigma) was for parallel detection as positive control, and they were incubated for 20 minutes. (3) The probe substrate of CYP2C8 was Amodiaquine (1 uM) (Sigma), and the selective inhibitor Montelukast (10 uM) (Sigma) was for parallel detection as positive control, and they were incubated for 20 minutes. (4) The probe substrate for CYP2C9 was Diclofenac (2.5 uM) (Sigma), and the selective inhibitor Sulphaphenazole (10 uM) (Sigma) was for parallel detection as positive control, and they were incubated for 20 minutes. (5) The probe substrate for CYP2C19 was Mephenytoin (40 uM) (Sigma), and the selective inhibitor Ticlopidine (10 uM) (Sigma) was for parallel detection as positive control, and they were incubated for 20 minutes. (6) The probe substrate for CYP2D6 was Dextromethorphan (5 uM) (Sigma), and the selective inhibitor Quinidine (10 uM) (Sigma) was for parallel detection as positive control, and they were incubated for 20 minutes. (7) The probe substrates for CYP3A4-T and CYP3A4-M were Testosterone (5 uM) (Sigma) and Midazolam (5 uM) (Sigma), respectively, and the selective inhibitor was Ketoconazole (1 uM) (Sigma), they were detected in parallel as positive control, and incubated for 5 minutes. The reaction system was quenched by adding methanol containing the corresponding internal standard. The internal standard compound was Tolbutamide (Sigma). The concentration of the corresponding metabolites was determined by LC/MS/MS. For the data analysis, the decrease in peak area of the metabolite of the sample after addition of compound 77 relative to the peak area of the metabolite of the solvent control sample was used to calculate the IC50 (concentration of the test substance at 50% inhibition). The percentages of peak areas of metabolites of CYP1A2, CYP2B6, CYP2C8, CYP2C9, 15CYP2C19, CYP2D6, CYP3A4-T, and CYP3A4-M probe substrates after addition of different concentrations of compound 77 and selective inhibitors relative to the solvent control peak areas were shown in the Table 7.
# CYP2B6 = target: T2, CYP2B6 (Homo sapiens, UniProt P20813); assay: P450 enzyme inhibition, CYP2B6; settings: human liver microsomes
# T2 construct: human liver microsomes (BD Gentest) (0.5 mg/mL); tissue BD Gentest; host or cells: human liver microsomes
# T2 sequence (P20813 1-491): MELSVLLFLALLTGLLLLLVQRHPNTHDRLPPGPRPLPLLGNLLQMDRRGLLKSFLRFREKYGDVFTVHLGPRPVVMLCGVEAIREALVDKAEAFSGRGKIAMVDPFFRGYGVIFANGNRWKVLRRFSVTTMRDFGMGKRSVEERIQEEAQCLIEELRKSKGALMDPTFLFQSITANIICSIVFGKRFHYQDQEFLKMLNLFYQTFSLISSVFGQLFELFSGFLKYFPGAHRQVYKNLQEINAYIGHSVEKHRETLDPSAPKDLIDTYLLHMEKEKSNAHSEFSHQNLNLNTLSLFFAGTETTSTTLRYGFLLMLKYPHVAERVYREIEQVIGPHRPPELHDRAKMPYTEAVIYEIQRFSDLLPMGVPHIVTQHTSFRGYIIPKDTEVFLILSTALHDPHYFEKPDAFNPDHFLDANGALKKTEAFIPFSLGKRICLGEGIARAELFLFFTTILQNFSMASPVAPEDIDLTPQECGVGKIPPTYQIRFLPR
# Method: as §1, §2
# rat plasma protein = assay: Binding rate to plasma protein of rats (dialysis method)
# Method: The binding rate of compound 77 of the present invention to plasma protein at a rat plasma concentration of 2 uM was evaluated by dialysis method.
# Procedure: The DMSO stock solution of compound 77 (10 mM) or the positive control propranolol (USP) was added to 500 uL of blank plasma. The final concentration of test substance in the plasma was 2 uM, and the final concentration of the positive control was 1 uM, in triplicate. 300 uL of prepared plasma samples was added to the plasma chamber, and 500 uL of dialysis buffer was added to the buffer chamber (phosphate buffer solution PBS contained 100 mM sodium phosphate and 150 mM sodium chloride, PH 7.2), sealed, and incubated for 4 h while shaking at 100 rpm, 37° C. After incubation, 50 uL sample was taken from the plasma chamber and buffer chamber, and 50 uL of PBS was added to plasma chamber samples, and 50 uL of blank plasma was added to the buffer chamber samples. Immediately, 3-fold methanol solution containing internal standard was added, to precipitate plasma protein. After centrifugation, the supernatant was taken for LC/MS/MS analysis. The plasma protein binding rate was calculated according to the following formula: % free state=(peak area ratio in the buffer chamber/the peak area ratio in the plasma chamber)×%, % binding state=100%−% free state.
smiles,measurement,setting,value
"COCCOc1ccc2c(c1)ncn2-c1ccc(NC(=O)Nc2cc(C(C)(C)C)n[nH]2)cc1 [Compound 77, 1-(5-tert-butyl-2H-pyrazol-3-yl)-3-{4-[5-(2-methoxyl-ethoxyl)-benzimidazol-1-yl]-phenyl}-urea]",CYP2C8 Remaining %,CYP2C8; Concentration 0.25 uM,99.2%
same,CYP2C8 Remaining %,CYP2C8; Concentration 0.5 uM,103.5%
same,CYP2C8 Remaining %,CYP2C8; Concentration 5 uM,90.7%
same,CYP2C8 Remaining %,CYP2C8; Concentration 10 uM,88.5%
same,CYP2C8 Remaining %,CYP2C8; Concentration 25 uM,81.7%
same,CYP2C8 Remaining %,CYP2C8; Concentration 50 uM,49.1%
same,IC50,CYP2C8,≥ 50 µM
same,CYP2B6 Remaining %,CYP2B6; Concentration 0.25 uM,106.1%
same,CYP2B6 Remaining %,CYP2B6; Concentration 0.5 uM,109.6%
same,CYP2B6 Remaining %,CYP2B6; Concentration 5 uM,100.4%
same,CYP2B6 Remaining %,CYP2B6; Concentration 10 uM,90.1%
same,CYP2B6 Remaining %,CYP2B6; Concentration 25 uM,64.6%
same,CYP2B6 Remaining %,CYP2B6; Concentration 50 uM,40.1%
same,IC50,CYP2B6; read-out: half-inhibitory concentration (IC50) of CYP2B6,39 µM
same,Mean Binding Rate,"rat plasma protein; Rats, concentration 2 uM",99.54%
same,Binding Rate,"rat plasma protein; Rats, concentration 2 uM, single replicates",99.46% and 99.58% and 99.60%
same,binding rate to the rat plasma protein,"rat plasma protein; dialysis, 4 h, 37° C., test substance 2 uM, positive control 1 uM",99.54%
